For this assay, the target named is SARS-CoV-2 RBD:ACE2 (UniProt P0DTC2+Q9BYF1). Put plainly: biochemical. Further details: species or system SARS-CoV-2 (RBD); human (ACE2).
Chain of SARS-CoV-2 RBD:ACE2 (Q9BYF1 18-615, one chain of several): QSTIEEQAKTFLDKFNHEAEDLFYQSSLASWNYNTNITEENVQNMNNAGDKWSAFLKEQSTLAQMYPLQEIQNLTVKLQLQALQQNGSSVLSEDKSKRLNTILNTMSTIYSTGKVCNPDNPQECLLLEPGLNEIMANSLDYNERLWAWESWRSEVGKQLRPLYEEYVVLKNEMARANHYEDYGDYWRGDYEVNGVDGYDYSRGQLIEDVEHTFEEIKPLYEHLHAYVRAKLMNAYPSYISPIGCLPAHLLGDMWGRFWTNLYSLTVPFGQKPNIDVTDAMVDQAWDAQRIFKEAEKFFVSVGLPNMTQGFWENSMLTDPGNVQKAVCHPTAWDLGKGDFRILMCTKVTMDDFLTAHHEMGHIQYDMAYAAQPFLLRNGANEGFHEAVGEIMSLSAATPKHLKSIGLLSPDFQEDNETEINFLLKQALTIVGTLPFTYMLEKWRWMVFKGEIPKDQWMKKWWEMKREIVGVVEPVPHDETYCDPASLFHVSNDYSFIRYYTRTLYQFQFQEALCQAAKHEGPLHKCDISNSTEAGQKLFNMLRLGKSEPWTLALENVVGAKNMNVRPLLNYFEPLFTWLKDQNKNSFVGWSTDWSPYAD

For the compound `O=c1c(O)cc([C@H]2Oc3cc(O)cc(O)c3C[C@H]2O)cc2c([C@H]3Oc4cc(O)cc(O)c4C[C@H]3O)cc(O)c(O)c12` [Theaflavin], the IC50 – broadly, the concentration needed to halve the response being measured – is 41.7 µM and the “effect on SRAE2-BS activity (suppression)” value is “significantly suppressed SRAE2-BS activity”.

Source of the values: paper PMC8227885 (Viruses, 2021).
